Test results as given in ChEMBL document CHEMBL1201862, “PubChem BioAssay data set” (2004).
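Five concentrations, 48 hours, 96-well plates. GI50 marks 50% less growth.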 Calls of active or inactive are those of the source. Rule as the data show it: active = GI50 up to about 1.1 µM and inactive = higher.

Tests used:
Assay in all cases: NCI anticancer screen, dose series, 48 h
OVCAR-5 = test system: OVCAR-5
OVCAR-8 = test system: OVCAR-8
RXF 393 = test system: RXF 393
SF-295 = test system: SF-295
HOP-62 = test system: HOP-62
SK-OV-3 = test system: SK-OV-3
NCI-H226 = test system: NCI-H226
OVCAR-3 = test system: OVCAR-3
CAKI-1 = test system: CAKI-1
SN12C = test system: SN12C
SF-539 = test system: SF-539
SR = test system: SR
K562 = test system: K562
SF-268 = test system: SF-268
SK-MEL-2 = test system: SK-MEL-2
HCC 2998 = test system: HCC 2998
A498 = test system: A498

Measured: GI50

COC(=O)C1=CC2OC1(C)CCC2=O (stereo not given)
inactive: OVCAR-5 > 100 µM | OVCAR-8 50.1 µM | RXF 393 > 100 µM | SF-295 > 100 µM | HOP-62 > 100 µM | SK-OV-3 > 100 µM | NCI-H226 > 100 µM | OVCAR-3 > 100 µM | CAKI-1 63 µM | SN12C > 100 µM | SF-539 > 100 µM | SR 45.9 µM | K562 62.4 µM | SF-268 > 100 µM | SK-MEL-2 > 100 µM | HCC 2998 > 100 µM

O=C1NCCCC12CCCNC2=O
inactive: OVCAR-8 > 100 µM | RXF 393 > 100 µM | SF-295 > 100 µM | HOP-62 > 100 µM | SK-OV-3 > 100 µM | NCI-H226 > 100 µM | OVCAR-3 > 100 µM | SN12C > 100 µM | SF-539 > 100 µM | SR > 100 µM | K562 > 100 µM | SF-268 > 100 µM | HCC 2998 > 100 µM

CCOC(=O)Nc1ccc(S(=O)(=O)OC)cc1.CCOC(=O)Nc1ccc(S(=O)(=O)OC)cc1.Cc1cn(C2CC(O)C(CO)O2)c(=O)[nH]c1=O
inactive: OVCAR-5 > 100 µM | OVCAR-8 > 100 µM | A498 > 100 µM | SF-295 > 100 µM | HOP-62 > 100 µM | SK-OV-3 > 100 µM | NCI-H226 > 100 µM | OVCAR-3 > 100 µM | CAKI-1 > 100 µM | SN12C > 100 µM | SF-539 > 100 µM | K562 34.2 µM | SF-268 > 100 µM | SK-MEL-2 > 100 µM | HCC 2998 > 100 µM

O=C1c2ccccc2-c2cccc3ccc(Cc4ccc5ccccc5c4)c1c23
inactive: OVCAR-5 > 100 µM | OVCAR-8 > 100 µM | RXF 393 48.2 µM | SF-295 > 100 µM | HOP-62 > 100 µM | OVCAR-3 > 100 µM | SN12C > 100 µM | SF-539 > 100 µM | K562 29.4 µM | SF-268 > 100 µM | SK-MEL-2 > 100 µM | HCC 2998 > 100 µM

COc1cc2c3cc1Oc1c(O)c(OC)cc4c1C(Cc1ccc(O)c(c1)Oc1ccc(cc1)CC3N(C)CC2)N(C)CC4 (stereo not given)
inactive: OVCAR-5 22.7 µM | OVCAR-8 14.3 µM | A498 18.2 µM | RXF 393 2.44 µM | SF-295 16.1 µM | HOP-62 18.7 µM | SK-OV-3 23.3 µM | NCI-H226 21.4 µM | OVCAR-3 16.9 µM | CAKI-1 17.3 µM | SN12C 15.3 µM | SF-539 2.46 µM | K562 3.03 µM | SF-268 16.8 µM | SK-MEL-2 23.6 µM | HCC 2998 5.61 µM

CCOc1cccc2[s+]snc12
inactive: OVCAR-5 > 100 µM | OVCAR-8 54.3 µM | A498 > 100 µM | RXF 393 > 100 µM | SF-295 > 100 µM | HOP-62 > 100 µM | SK-OV-3 > 100 µM | NCI-H226 > 100 µM | OVCAR-3 30.3 µM | CAKI-1 > 100 µM | SN12C > 100 µM | SF-539 46.8 µM | K562 39.8 µM | SF-268 98.4 µM | SK-MEL-2 > 100 µM | HCC 2998 > 100 µM

CC(=O)Nc1ccc(C(=O)N2N=C(C)/C(=C/c3cccc(O)c3)C2=O)cc1
inactive: OVCAR-5 > 100 µM | OVCAR-8 > 100 µM | SF-295 > 100 µM | HOP-62 > 100 µM | NCI-H226 > 100 µM | OVCAR-3 > 100 µM | CAKI-1 > 100 µM | SN12C > 100 µM | SF-539 > 100 µM | K562 > 100 µM | SF-268 > 100 µM | SK-MEL-2 > 100 µM | HCC 2998 > 100 µM

c1ccc(C2N=C(c3ccccn3)C(c3ccccn3)=NC2c2ccccc2)cc1 (stereo not given)
inactive: OVCAR-5 > 100 µM | OVCAR-8 > 100 µM | A498 > 100 µM | RXF 393 > 100 µM | SF-295 > 100 µM | HOP-62 20 µM | SK-OV-3 > 100 µM | NCI-H226 > 100 µM | OVCAR-3 > 100 µM | CAKI-1 > 100 µM | SF-539 > 100 µM | K562 > 100 µM | SF-268 > 100 µM | SK-MEL-2 > 100 µM | HCC 2998 > 100 µM

N/N=c1\c2ccccc2c2ccc3c4ccccc4/c(=N\N)c3c12
inactive: OVCAR-5 > 100 µM | OVCAR-8 > 100 µM | RXF 393 > 100 µM | SF-295 > 100 µM | HOP-62 > 100 µM | SK-OV-3 > 100 µM | NCI-H226 > 100 µM | SN12C > 100 µM | SF-539 > 100 µM | SR 25.7 µM | K562 > 100 µM | SF-268 > 100 µM | SK-MEL-2 > 100 µM | HCC 2998 > 100 µM

CCC1N2CCCCC2[C@@H]2c3[nH]c4ccccc4c3CCN12 (stereo not given in full)
inactive: OVCAR-5 > 100 µM | OVCAR-8 > 100 µM | A498 > 100 µM | RXF 393 > 100 µM | SF-295 > 100 µM | HOP-62 > 100 µM | SK-OV-3 > 100 µM | OVCAR-3 > 100 µM | CAKI-1 > 100 µM | SN12C > 100 µM | SF-539 > 100 µM | K562 > 100 µM | SF-268 > 100 µM | SK-MEL-2 > 100 µM | HCC 2998 > 100 µM

O/N=C/c1ncccc1C1OCCO1
inactive: OVCAR-5 > 100 µM | OVCAR-8 > 100 µM | RXF 393 > 100 µM | SF-295 > 100 µM | HOP-62 > 100 µM | SK-OV-3 > 100 µM | NCI-H226 > 100 µM | OVCAR-3 > 100 µM | CAKI-1 > 100 µM | SN12C > 100 µM | SF-539 > 100 µM | SR > 100 µM | K562 > 100 µM | SF-268 > 100 µM | SK-MEL-2 > 100 µM

CC1(c2ccc(F)cc2)C(C#N)C(=O)NC(=O)C1C#N (stereo not given)
inactive: OVCAR-5 > 100 µM | OVCAR-8 > 100 µM | A498 41.4 µM | RXF 393 60.1 µM | SF-295 > 100 µM | HOP-62 75.2 µM | SK-OV-3 > 100 µM | NCI-H226 > 100 µM | OVCAR-3 > 100 µM | CAKI-1 > 100 µM | SN12C > 100 µM | SF-539 > 100 µM | K562 > 100 µM | SF-268 > 100 µM | SK-MEL-2 > 100 µM | HCC 2998 > 100 µM

CC(=O)OCc1nnn2c1C(OC(C)=O)CC2 (stereo not given)
inactive: OVCAR-5 > 100 µM | OVCAR-8 > 100 µM | RXF 393 > 100 µM | SF-295 > 100 µM | SK-OV-3 > 100 µM | NCI-H226 > 100 µM | OVCAR-3 > 100 µM | CAKI-1 > 100 µM | SN12C > 100 µM | SF-539 > 100 µM | SR > 100 µM | K562 > 100 µM | SK-MEL-2 > 100 µM | HCC 2998 > 100 µM
